Experimental findings from patent publication US20250250231A1, “NOVEL SUBSTITUTED 4-AMINO-4-OXO-BUT-2-ENYL DERIVATIVES, PROCESSES FOR THEIR PREPARATION AND THERAPEUTIC USES THEREOF” (SANOFI, priority 2022, published 2025) are described below.

The term IC50 denotes the concentration that inhibits the measured activity by half.

Assay type in all cases: cell-based
The test system of experiment [1] is MCF7-WT cells. The experiment is described as follows: In vitro anti-proliferation assay (CellTiter-Glo viability), MCF7-WT cells. The settings on record: Homo sapiens, MCF7, 192 h, MCF7-WT cells supplemented with 0.1 nM b-estradiol; viability on day 8; relative IC50. The procedure:
(§1) Test: In vitro anti-proliferation assay
(§2) Said test involves measuring the in vitro anti-proliferation activity of the compounds of the Table 1a.
(§3) The measurements of the anti-proliferation activities were made using MCF7-WT (ATCC), MCF7-Y537S and HCC1428-LTED cells as described hereunder.
(§4) On Day 1, MCF7-WT and MCF7-Y537S (Mol Cancer Ther. 2021 20(2):250-262), and HCC1428-LTED (J Clin Invest. 2010; 120(7):2406-2413) cells, were seeded at 2000 (WT and LTED) and 500 (Y537S) cells/well in phenol red free IMEM (Corning, 110-026-CV) with 5% Charcoal stripped-FBS and incubated overnight 37° C. and 5% CO2.
(§5) On day 2, compounds were tested in triplicate in 10-point dose response (1:3 serial dilutions with a top concentration starting 300 nM); DMSO for upper limit (negative control) and staurosporine (1 uM) for lower limit (positive control) were also included. MCF7-WT cells were then supplemented with final 0.1 nM b-estradiol. After treating the cells, the assay plates were transferred back in the incubator at 37° C. and 5% CO2.
(§6) On day 8, cell viability was measured per vendor recommendations (CellTiter-Glo, Promega). Relative IC50 measurements were calculated as follow using a 4-parameter logistic derived from Levenburg Marquardt algorithm (IDBS XL Model 205 fit within A-base).
On the technique in general: In ATP-based viability assays light output follows the ATP content of the culture.

Experiment [2] has as its system MCF7-Y537S cells. The experiment is described as follows: In vitro anti-proliferation assay (CellTiter-Glo viability), MCF7-Y537S cells. The settings on record: Homo sapiens, MCF7, 192 h, viability on day 8, relative IC50. The procedure:
as §1, §2, §3, §4, §5, §6

The subject of experiment [3] is HCC1428-LTED cells. The experiment is described as follows: In vitro anti-proliferation assay (CellTiter-Glo viability), HCC1428-LTED cells. Particulars: Homo sapiens, HCC1428, 192 h, viability on day 8, relative IC50, read-out: HCC 1428 IC50. On the procedure: as §1, §2, §3, §4, §5, §6

Where only a bound is given, the exact number is not on record here.

With `Cc1ccc(C2=C(c3ccc(O[C@H]4CCN(C/C=C/C(=O)N(C)C)C4)cc3)c3ccc(C(=O)O)cc3CCC2)c(Cl)c1` [Compound 11, (S,E)-8-(2-chloro-4-methylphenyl)-9-(4-((1-(4-(dimethylamino)-4-oxobut-2-en-1-yl)pyrrolidin-3-yl)oxy)phenyl)-6,7-dihydro-5H-benzo[7]annulene-3-carboxylic acid], the IC50 in experiment [1] is 2 nM; in experiment [2] it was 204 nM; in experiment [3], 0.1 nM.

Consider `Cc1ccc(C2=C(c3ccc(O[C@H]4CCN(C/C=C/C(=O)N(C)C)C4)cc3)c3ccc(C(=O)O)cc3CCC2)cc1Cl` [Compound 7, (S,E)-8-(3-chloro-4-methylphenyl)-9-(4-((1-(4-(dimethylamino)-4-oxobut-2-en-1-yl)pyrrolidin-3-yl)oxy)phenyl)-6,7-dihydro-5H-benzo[7]annulene-3-carboxylic acid], for which the IC50 was 28 nM in experiment [1], at least 500 nM in experiment [2] and 2 nM in experiment [3].

Consider `CN(C)C(=O)/C=C/CN1CC[C@H](Oc2ccc(C3=C(c4ccccc4)CCCc4cc(C(=O)O)ccc43)cc2)C1` [Compound 6, (S,E)-9-(4-((1-(4-(dimethylamino)-4-oxobut-2-en-1-yl)pyrrolidin-3-yl)oxy)phenyl)-8-phenyl-6,7-dihydro-5H-benzo[7]annulene-3-carboxylic acid], for which the concentration for half-maximal inhibition (IC50) in experiment [1] is 14 nM; in experiment [2], at least 500 nM; in experiment [3], 0.7 nM.

As for `CN(C)C(=O)/C=C/CN1CC[C@H](Oc2ccc(C3=C(c4cccc(F)c4Cl)CCCc4cc(C(=O)O)ccc43)cc2)C1` [Compound 4, (S,E)-8-(2-chloro-3-fluorophenyl)-9-(4-((1-(4-(dimethylamino)-4-oxobut-2-en-1-yl)pyrrolidin-3-yl)oxy)phenyl)-6,7-dihydro-5H-benzo[7]annulene-3-carboxylic acid], the IC50 in experiment [1] is 22 nM; in experiment [2], at least 500 nM; in experiment [3], 2 nM.

As for `CN(C)C(=O)/C=C/CN1CC(Cc2ccc(C3=C(c4ccc(Cl)cc4Cl)CCCc4cc(C(=O)O)ccc43)cc2)C1` [Compound 13, (E)-8-(2,4-dichlorophenyl)-9-(4-((1-(4-(dimethylamino)-4-oxobut-2-en-1-yl)azetidin-3-yl)methyl)phenyl)-6,7-dihydro-5H-benzo[7]annulene-3-carboxylic acid compound with 2,2,2-trifluoroacetic acid (1:1)], the half-inhibitory concentration (IC50) in experiment [1] worked out at 3 nM; in experiment [2], 9 nM; in experiment [3] it was 0.01 nM.

With `CN(C)C(=O)/C=C/CN1CC[C@H](Nc2ccc(C3=C(c4ccc(Cl)cc4Cl)CCCc4cc(C(=O)O)ccc43)cc2)C1` [Compound 16, (S,E)-8-(2,4-dichlorophenyl)-9-(4-((1-(4-(dimethylamino)-4-oxobut-2-en-1-yl)pyrrolidin-3-yl)amino)phenyl)-6,7-dihydro-5H-benzo[7]annulene-3-carboxylic acid], the figures for the IC50 in experiment [1], in experiment [2] and in experiment [3] were 37 nM, 174 nM and 33 nM, respectively.

Take `Cc1ccc(C2=C(c3ccc(O[C@H]4CCN(C/C=C/C(=O)N(C)C)C4)cc3)c3ccc(C(=O)O)cc3CCC2)c(C)c1` [Compound 8, (S,E)-9-(4-((1-(4-(dimethylamino)-4-oxobut-2-en-1-yl)pyrrolidin-3-yl)oxy)phenyl)-8-(2,4-dimethylphenyl)-6,7-dihydro-5H-benzo[7]annulene-3-carboxylic acid]: the IC50 came out at 3 nM in experiment [1], 87 nM in experiment [2] and 0.2 nM in experiment [3].

In the case of `CN(C)C(=O)/C=C/CN1CC[C@H](Oc2ccc(C3=C(c4ccccc4Cl)CCCc4cc(C(=O)O)ccc43)cc2)C1` [Compound 9, (S,E)-8-(2-chlorophenyl)-9-(4-((1-(4-(dimethylamino)-4-oxobut-2-en-1-yl)pyrrolidin-3-yl)oxy)phenyl)-6,7-dihydro-5H-benzo[7]annulene-3-carboxylic acid], the concentration for half-maximal inhibition (IC50) amounted to 4 nM in experiment [1], 87 nM in experiment [2] and 0.2 nM in experiment [3].

Turning to `CN(C)C(=O)/C=C/CN1CC/C(=C/c2ccc(C3=C(c4ccc(Cl)cc4Cl)CCCc4cc(C(=O)O)ccc43)cc2)C1` [Compound 20, 8-(2,4-dichlorophenyl)-9-(4-((Z)-(1-((E)-4-(dimethylamino)-4-oxobut-2-en-1-yl)pyrrolidin-3-ylidene)methyl)phenyl)-6,7-dihydro-5H-benzo[7]annulene-3-carboxylic acid], the IC50 was 41 nM in experiment [1], at least 500 nM in experiment [2] and 1 nM in experiment [3].
